Measured values from PMC2360155, “Novel retinoic acid metabolism blocking agents have potent inhibitory activities on human breast cancer cells and tumour growth” (British Journal of Cancer, 2007).
pIC50: −log10 of the molar value.

Assays:
[1] = tested on: T47D cells; assay: Cell cycle analysis by flow cytometry (PI), T47D; assay type: cell-based, human; details: 5 μM, 6 days (4-HPR 4 days)
Experimental: MCF-7 and T47D cells were plated in T-25 flasks and allowed to adhere for about 18 h. The cells were then synchronised by growing them in low-serum OPTI-MEM I medium for 2 days. […] After 6-day treatment, the cells were trypsinised, washed twice with PBS, centrifuged at 2500 r.p.m. to obtain a cell pellet. The cells (about 1–2 × 10^6) were fixed with 3 ml of 70% ethanol (by adding drop-wise and taking care that the cells are not clumped together). Cells were kept at −20°C until further analysis (at least overnight). Next, cells (∼1–2 × 10^6) were stained with 1 ml of propidium iodide (PI) (50 μg ml^−1)/RNase (100 μg ml^−1) solution and after about half an hour the fluorescence of stained nuclei (15 000 events) was analysed by flow cytometry (Becton Dickinson FACScan Instrument and quantification by Modfit LT version 3.1 software) with excitation wavelength of 488 nm. The percentage of G1, S, G2/M and sub-G1 (apoptotic cells) in the population of treated and untreated cells were determined.

[2] = tested on: cyclin D1; assay: Western blotting for cyclin D1 in MCF-7 cells; assay type: cell-based, human; details: 6 days (4HPR 4 days)
Experimental: At the end of the treatment, cells were scrapped and collected by washing with ice-cold PBS in a centrifuge tube. Cells were centrifuged at 2500 r.p.m. for 10 min, the pellet was again washed with ice-cold PBS and centrifuged. The cell pellet was then suspended in chilled cell lysis buffer (0.1 M Tris–HCl, 0.5% Triton X-100, protease inhibitor cocktail) and sonicated on ice for 10–15 s. The homogenate was kept on ice for 30 min and then centrifuged at 13 000 r.p.m. for 30 min. The supernatant was used as cell lysate. The cell lysates were stored at −80°C. Protein concentration of the cell lysates was determined using Bio-Rad protein assay reagents.
Protein lysates from MCF-7 and T47D cells were subjected to sodium dodecyl sulphate–polyacrylamide gel electrophoresis (SDS–PAGE) and immunoblotted for different proteins. […] Immunoreactive bands were visualised using the enhanced chemiluminescence detection reagents and analysis system (Amersham Bioscences) according to the manufacturer's instructions and quantified by densitometry using ImageQuant software version 5.
Figure 5 Western blotting of whole-cell lysates of treated MCF-7 and T47D cells for the expression of Cyclin D1. […] Numbers below the blot show fold decrease in expression of the protein as analysed by ImageQuant densitometry analysis. […]

[3] = tested on: MCF-7 cells; assay: TUNEL apoptosis assay, MCF-7; assay type: cell-based, human; details: 5 μM; 6 days; control about 1.5%
Excerpt: (§1) The cells were rinsed with PBS and then the stained-labelled apoptotic cells were mounted using DAPI (diamidino-2-phenylindole 2HCl)-glycerol and visualised with a fluorescent microscope using two filters (1) for TUNEL stained cells, and (2) for DAPI stained cells, which represents all the cells (nuclei). Fluorescent microscope model was Nikon, Eclipse E400 and the software was SPOT advanced version 3.5.5 by Diagnostic Instruments Inc. (Sterling Heights, MI, USA).
(§2) Figure 6 Graphs showing apoptosis induced in (A) MCF-7 and (B) T47D cells as determined by TUNEL. […] TUNEL-stained apoptotic cells were counted against the DAPI stained cells to obtain percentage apoptosis. The experiments were repeated thrice with similar results. Error bars show s.e.m of three different fields of treated cells, statistically significant ^*P<0.01 and ^**P<0.001 vs control.

[4] = tested on: T47D cells; assay: TUNEL apoptosis assay, T47D; assay type: cell-based, human; details: 5 μM; 6 days; control about 1.5%
Excerpt: as §1, §2

[5] = tested on: MCF-7 cells; design: method as in Patel et al. (2004); details: inhibition of cell proliferation by 50%; ref Patel et al. (2004); read-out: Cellular IC50, MCF-7; cited from earlier work
[6] = tested on: MDA-MB-231 cells; design: method as in Patel et al. (2004); details: inhibition of cell proliferation by 50%; ref Patel et al. (2004); read-out: Cellular IC50, MDA-MB-231; cited from earlier work

## CC1=C(/C=C/C(C)=C/C=C/C(C)=C/C(=O)Nc2ccc(O)cc2)C(C)(C)CCC1 [Compound 4-HPR, 4-Hydroxyphenyl retinamide, reference compound]
[1]
  G2/M (%): 16.75±4.39%
  Go/G1 (%): 76.94±3.47%
  S (%): 6.32±0.93%
  Sub-G1 (%): 30.25±6.66%
[2]
  Decrease of cyclin D1 protein expression compared with untreated control: > 80%
[3]
  Induction of apoptosis (TUNEL), MCF-7: 20–25%
[4]
  Induction of apoptosis (TUNEL), T47D: 20–25%
[5]
  pIC50: 6.83
[6]
  pIC50: 5.85
